# Data: ChEMBL document CHEMBL4402545, “Subtype Selective γ-Aminobutyric Acid Type A Receptor (GABAAR) Modulators Acting at the Benzodiazepine Binding Site: An Update” (J Med Chem, 2020)
# Tests used:
# [1] = target: T1, Gamma-aminobutyric acid receptor subunit alpha-2 (Homo sapiens) (UniProt P47869); assay: Binding affinity to GABA-A alpha2 (unknown origin) assessed as increase in induced current relative to control
# T1 sequence (whole entry): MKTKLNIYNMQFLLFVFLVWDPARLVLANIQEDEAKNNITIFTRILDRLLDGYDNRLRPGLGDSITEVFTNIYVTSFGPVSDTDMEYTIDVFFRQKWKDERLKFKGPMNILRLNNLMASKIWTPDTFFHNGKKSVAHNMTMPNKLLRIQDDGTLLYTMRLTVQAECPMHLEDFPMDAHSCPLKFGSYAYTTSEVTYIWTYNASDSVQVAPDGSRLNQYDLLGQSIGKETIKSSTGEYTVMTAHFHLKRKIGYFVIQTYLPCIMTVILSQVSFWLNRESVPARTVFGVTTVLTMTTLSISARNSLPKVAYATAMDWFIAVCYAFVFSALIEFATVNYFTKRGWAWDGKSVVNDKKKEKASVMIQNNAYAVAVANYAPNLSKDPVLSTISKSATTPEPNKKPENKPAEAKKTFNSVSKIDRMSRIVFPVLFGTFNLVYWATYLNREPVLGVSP
# [2] = target: T2, GABA-A receptor; alpha-1/beta-3/gamma-2 (Homo sapiens, UniProt P14867+P18507+P28472); assay: Displacement of [3H]-flumazenil from human GABAA alpha1beta3gamma2 expressed in Ltk cells; assay type: cell-based
# T2 sequence (P14867 whole entry): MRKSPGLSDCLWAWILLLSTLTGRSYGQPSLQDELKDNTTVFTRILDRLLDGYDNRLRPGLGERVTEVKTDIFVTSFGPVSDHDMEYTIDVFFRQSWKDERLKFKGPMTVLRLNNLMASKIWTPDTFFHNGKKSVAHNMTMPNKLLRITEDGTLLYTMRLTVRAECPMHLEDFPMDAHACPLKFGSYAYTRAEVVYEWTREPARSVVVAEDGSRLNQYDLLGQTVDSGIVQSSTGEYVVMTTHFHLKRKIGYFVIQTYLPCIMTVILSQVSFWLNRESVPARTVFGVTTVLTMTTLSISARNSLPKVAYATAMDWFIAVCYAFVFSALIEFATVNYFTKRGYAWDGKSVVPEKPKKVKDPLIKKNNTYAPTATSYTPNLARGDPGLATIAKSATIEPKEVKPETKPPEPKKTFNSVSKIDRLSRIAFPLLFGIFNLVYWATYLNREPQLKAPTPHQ
# T2 sequence (P18507 whole entry): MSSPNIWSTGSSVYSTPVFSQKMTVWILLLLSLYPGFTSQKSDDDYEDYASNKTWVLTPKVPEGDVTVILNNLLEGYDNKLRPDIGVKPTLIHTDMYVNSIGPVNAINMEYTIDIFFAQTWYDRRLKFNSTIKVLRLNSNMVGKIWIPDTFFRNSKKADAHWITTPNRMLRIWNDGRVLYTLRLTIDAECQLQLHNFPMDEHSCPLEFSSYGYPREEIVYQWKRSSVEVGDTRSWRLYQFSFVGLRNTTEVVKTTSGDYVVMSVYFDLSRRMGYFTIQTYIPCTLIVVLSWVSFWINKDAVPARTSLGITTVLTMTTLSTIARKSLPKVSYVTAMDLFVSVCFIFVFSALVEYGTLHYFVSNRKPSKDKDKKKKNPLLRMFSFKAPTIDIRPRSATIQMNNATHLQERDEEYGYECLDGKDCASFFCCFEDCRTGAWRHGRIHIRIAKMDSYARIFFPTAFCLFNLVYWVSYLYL
# T2 sequence (P28472 whole entry): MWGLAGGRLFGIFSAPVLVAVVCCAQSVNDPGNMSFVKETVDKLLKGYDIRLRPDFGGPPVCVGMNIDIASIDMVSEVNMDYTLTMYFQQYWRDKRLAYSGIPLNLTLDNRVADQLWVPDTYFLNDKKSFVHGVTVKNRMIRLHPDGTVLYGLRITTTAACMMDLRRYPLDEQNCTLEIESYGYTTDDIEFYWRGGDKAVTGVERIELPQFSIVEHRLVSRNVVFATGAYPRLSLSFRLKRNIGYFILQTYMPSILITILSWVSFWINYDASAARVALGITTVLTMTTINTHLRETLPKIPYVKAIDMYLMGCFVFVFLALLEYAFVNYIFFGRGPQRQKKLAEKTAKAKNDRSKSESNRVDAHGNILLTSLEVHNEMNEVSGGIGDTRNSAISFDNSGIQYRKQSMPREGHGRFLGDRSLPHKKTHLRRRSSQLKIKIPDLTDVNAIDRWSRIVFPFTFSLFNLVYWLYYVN
# [3] = target: T3, GABA-A receptor; alpha-3/beta-3/gamma-2 (Homo sapiens, UniProt P18507+P28472+P34903); assay: Displacement of [3H]-flumazenil from human GABAA alpha3beta3gamma2 expressed in Ltk cells; assay type: cell-based
# T3 sequence (P18507 whole entry): T2 sequence (P18507 whole entry)
# T3 sequence (P28472 whole entry): T2 sequence (P28472 whole entry)
# T3 sequence (P34903 whole entry): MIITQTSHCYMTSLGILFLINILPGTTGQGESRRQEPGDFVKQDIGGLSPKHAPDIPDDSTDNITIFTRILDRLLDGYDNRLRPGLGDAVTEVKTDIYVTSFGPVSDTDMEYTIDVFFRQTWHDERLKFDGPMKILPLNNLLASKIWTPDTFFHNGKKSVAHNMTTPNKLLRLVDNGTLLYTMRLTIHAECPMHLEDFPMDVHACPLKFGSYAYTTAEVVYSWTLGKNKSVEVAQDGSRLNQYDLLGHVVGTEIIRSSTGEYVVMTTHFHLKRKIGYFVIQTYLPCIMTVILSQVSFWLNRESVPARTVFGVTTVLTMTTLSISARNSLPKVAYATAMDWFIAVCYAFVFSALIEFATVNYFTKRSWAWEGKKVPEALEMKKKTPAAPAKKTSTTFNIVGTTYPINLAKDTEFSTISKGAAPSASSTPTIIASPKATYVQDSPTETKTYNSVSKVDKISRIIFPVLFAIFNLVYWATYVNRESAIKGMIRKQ
# [4] = target: T4, Gamma-aminobutyric acid receptor subunit alpha-1 (Homo sapiens) (UniProt P14867); assay: Binding affinity to GABA-A alpha1 (unknown origin) assessed as increase in induced current relative to control
# T4 sequence (whole entry): T2 sequence (P14867 whole entry)
# [5] = target: T5, Gamma-aminobutyric acid receptor subunit alpha-3 (Homo sapiens) (UniProt P34903); assay: Binding affinity to GABA-A alpha3 (unknown origin) assessed as increase in induced current relative to control
# T5 sequence (whole entry): T3 sequence (P34903 whole entry)
# [6] = target: T6, Gamma-aminobutyric acid receptor subunit alpha-5 (Homo sapiens) (UniProt P31644); assay: Binding affinity to GABA-A alpha5 (unknown origin) assessed as increase in induced current relative to control
# T6 sequence (whole entry): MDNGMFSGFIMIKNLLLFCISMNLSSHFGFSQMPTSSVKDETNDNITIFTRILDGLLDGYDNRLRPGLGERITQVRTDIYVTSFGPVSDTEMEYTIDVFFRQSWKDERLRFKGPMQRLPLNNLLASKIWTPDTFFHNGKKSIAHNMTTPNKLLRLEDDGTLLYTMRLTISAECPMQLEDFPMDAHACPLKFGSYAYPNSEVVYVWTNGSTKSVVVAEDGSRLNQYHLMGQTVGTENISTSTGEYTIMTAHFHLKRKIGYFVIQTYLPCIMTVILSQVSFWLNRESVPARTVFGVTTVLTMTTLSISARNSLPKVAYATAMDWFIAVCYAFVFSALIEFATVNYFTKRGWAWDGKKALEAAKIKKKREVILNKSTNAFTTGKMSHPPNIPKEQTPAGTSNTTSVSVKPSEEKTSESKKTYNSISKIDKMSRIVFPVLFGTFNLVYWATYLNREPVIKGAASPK
# [7] = target: T7, GABA-A receptor; alpha-5/beta-3/gamma-2 (Homo sapiens, UniProt P18507+P28472+P31644); assay: Displacement of [3H]-flumazenil from human GABAA alpha5beta3gamma2 expressed in Ltk cells; assay type: cell-based
# T7 sequence (P18507 whole entry): T2 sequence (P18507 whole entry)
# T7 sequence (P28472 whole entry): T2 sequence (P28472 whole entry)
# T7 sequence (P31644 whole entry): T6 sequence (whole entry)
# [8] = target: T4, Gamma-aminobutyric acid receptor subunit alpha-1 (Homo sapiens); assay: Positive allosteric modulation of GABAA alpha1 (unknown origin) relative to control
# [9] = target: T1, Gamma-aminobutyric acid receptor subunit alpha-2 (Homo sapiens); assay: Positive allosteric modulation of GABAA alpha2 (unknown origin) relative to control
# Homo sapiens [10] = assay: In vivo receptor occupancy GABAA receptor in human assessed as whole brain concentration causing reduction in [11C]flumazenil receptor labeling at 65 mg after […] by PET method relative to control; assay type: functional
# [11] = Half life in rat at 1 mg/kg, po; assay type: ADME, organism-based; details: in vivo
# Homo sapiens [12] = assay: In vivo receptor occupancy GABAA receptor in human assessed as whole brain concentration causing reduction in [11C]flumazenil receptor labeling at 10 mg after […] by PET method relative to control; assay type: functional
# Rattus norvegicus [13] = assay: In vivo receptor occupancy at GABAA receptor in po dosed Sprague-Dawley rat assessed as forebrain concentration causing 50% reduction in [3H]-flumazenil receptor labeling after 1 hr by scintillation counting method; assay type: functional
# [14] = Displacement of [3H]-flumazenil from human GABAA alpha2beta3gamma2 expressed in HEK293 cell membranes measured after 2 hrs by liquid scintillation counting method
# [15] = Half life in human at 0.04 to 100 mg, po; assay type: ADME; details: in vivo
# [16] = Intrinsic clearance in human liver microsomes; assay type: ADME, Microsome; details: read-out: CLH
# Rattus norvegicus [17] = assay: In vivo receptor occupancy at GABAA receptor in po dosed Sprague-Dawley rat assessed as cerebellum concentration causing 50% reduction in [3H]-flumazenil receptor labeling after 1 hr by scintillation counting method; assay type: functional
# Rattus norvegicus [18] = assay: In vivo receptor occupancy at GABAA receptor in po dosed Sprague-Dawley rat assessed as spinal cord concentration causing 50% reduction in [3H]-flumazenil receptor labeling after 1 hr by scintillation counting method; assay type: functional
# Rattus norvegicus [19] = assay: In vivo receptor occupancy at GABAA receptor in po dosed rat assessed as plasma concentration causing 50% reduction in [3H]-flumazenil receptor labeling by scintillation counting method; assay type: functional
# Rattus norvegicus [20] = assay: In vivo receptor occupancy at GABAA receptor in po dosed rat assessed as brain concentration causing 50% reduction in [3H]-flumazenil receptor labeling after 18 hrs by scintillation counting method; assay type: functional
# Homo sapiens [21] = assay: In vivo receptor occupancy at GABAA receptor in human assessed as plasma concentration causing reduction in [11C]-flumazenil receptor labeling at 9 ng/ml by PET method relative to control; assay type: functional
# [22] = Displacement of [3H]-flumazenil from human GABAA alpha2beta3gamma2 expressed in Ltk cells; assay type: cell-based
# [23] = target: GABA-A receptor; alpha-3/beta-3/gamma-2 (Homo sapiens) (UniProt P18507+P28472+P34903); assay: Positive allosteric modulation of recombinant human GABAA alpha3beta3gamma2 expressed in Ltk cells assessed as […] current response by whole cell patch clamp method relative to chlordiazepoxide; assay type: cell-based
# [24] = target: GABA-A receptor; alpha-1/beta-3/gamma-2 (Homo sapiens) (UniProt P14867+P18507+P28472); assay: Positive allosteric modulation of recombinant human GABAA alpha1beta3gamma2 expressed in Ltk cells assessed as […] current response by whole cell patch clamp method relative to chlordiazepoxide; assay type: cell-based
# [25] = target: GABA-A receptor; alpha-5/beta-3/gamma-2 (Homo sapiens) (UniProt P18507+P28472+P31644); assay: Positive allosteric modulation of recombinant human GABAA alpha5beta3gamma2 expressed in Ltk cells assessed as […] current response by whole cell patch clamp method relative to chlordiazepoxide; assay type: cell-based
# Rattus norvegicus [26] = assay: In vivo receptor occupancy at GABAA receptor in po dosed Sprague-Dawley rat assessed as brain concentration causing 50% reduction in [3H]-flumazenil receptor labeling by scintillation counting method; assay type: functional
# Homo sapiens [27] = organism: Homo sapiens; assay: Positive allosteric modulation of recombinant human GABAA alpha2beta3gamma2 expressed in Ltk cells assessed as […] current response by whole cell patch clamp method relative to chlordiazepoxide; assay type: cell-based
smiles,measurement,setting,value
Cn1ncnc1COc1nn2c(-c3cc(F)ccc3F)nnc2cc1C(C)(C)C,fold change (FC),[1],0.43
same,Ki,[2],0.79 nM
same,Ki,[3],0.67 nM
same,fold change (FC),[4],0.02
same,fold change (FC),[5],0.43
same,fold change (FC),[6],0.39
same,Ki,[7],2.25 nM
CCn1cnc2c(-c3ccc(F)c(-c4ccc(S(=O)(=O)CC)cc4OC)c3)cnnc21 [DARIGABAT],Activity,[8],< 20%
same,fold change (FC),[1],0.35
same,Activity,[9],> 50%
same,Occ,Homo sapiens [10],89%
same,half-life,[11],5.5 h
same,Occ,Homo sapiens [12],69%
same,Occ50,Rattus norvegicus [13],0.3 to 1 mg/kg
same,Ki,[14],2.92 nM
same,half-life,[15],6 to 8.9 h
same,microsomal CLint,[16],< 20 µL/min/mg
same,Occ50,Rattus norvegicus [17],0.3 to 1 mg/kg
same,fold change (FC),[4],0.11
same,Occ50,Rattus norvegicus [18],0.3 to 1 mg/kg
same,fold change (FC),[5],0.49
same,fold change (FC),[6],0.7
CCn1ncnc1COc1nn2c(-c3ccccc3F)nnc2cc1C(C)(C)C [MK-0777],Occ50,Rattus norvegicus [19],25 ng/mL
same,Occ50,Rattus norvegicus [20],0.42 mg/kg
same,Occ,Homo sapiens [21],50%
Cn1ncnc1COc1nn2c(-c3c(F)cccc3F)nnc2cc1C1CCC1,Ki,[22],0.4 nM
same,fold change (FC),[23],0.45
same,Ki,[2],0.22 nM
same,Ki,[3],0.21 nM
same,fold change (FC),[24],0.18
same,fold change (FC),[25],0.18
same,Occ50,Rattus norvegicus [26],2.2 mg/kg
same,fold change (FC),Homo sapiens [27],0.23
same,Ki,[7],0.23 nM
